Measurements as given in ChEMBL document CHEMBL5214990, “Novel Aryl Alkamidazole Derivatives as Multifunctional Antifungal Inhibitors: Design, Synthesis, and Biological Evaluation” (J Med Chem, 2022).
Converted amounts (≈) assume the structure as drawn. The source made the active and inactive calls. No cut-off for these calls is given here.

Legend:
[1] = test system: Cryptococcus neoformans; assay: Antifungal activity against Cryptococcus neoformans assessed as inhibition of fungal growth measured after 72 hrs by CLSI based liquid medium dilution method; format: functional
[2] = test system: Candida albicans; assay: Antifungal activity against fluconazole-resistant Candida albicans CaR assessed as inhibition of fungal growth measured after 72 hrs by CLSI based liquid medium dilution method; format: functional
[3] = target: T1, Prostaglandin G/H synthase 2 (Homo sapiens, UniProt P35354); assay: Inhibition of COX2 (unknown origin) assessed as reduction in PGF2alpha content using arachidonic acid as substrate preincubated for 10 mins followed by substrate addition and measured after 2 mins by enzyme immunoassay
T1 sequence (P35354 whole entry): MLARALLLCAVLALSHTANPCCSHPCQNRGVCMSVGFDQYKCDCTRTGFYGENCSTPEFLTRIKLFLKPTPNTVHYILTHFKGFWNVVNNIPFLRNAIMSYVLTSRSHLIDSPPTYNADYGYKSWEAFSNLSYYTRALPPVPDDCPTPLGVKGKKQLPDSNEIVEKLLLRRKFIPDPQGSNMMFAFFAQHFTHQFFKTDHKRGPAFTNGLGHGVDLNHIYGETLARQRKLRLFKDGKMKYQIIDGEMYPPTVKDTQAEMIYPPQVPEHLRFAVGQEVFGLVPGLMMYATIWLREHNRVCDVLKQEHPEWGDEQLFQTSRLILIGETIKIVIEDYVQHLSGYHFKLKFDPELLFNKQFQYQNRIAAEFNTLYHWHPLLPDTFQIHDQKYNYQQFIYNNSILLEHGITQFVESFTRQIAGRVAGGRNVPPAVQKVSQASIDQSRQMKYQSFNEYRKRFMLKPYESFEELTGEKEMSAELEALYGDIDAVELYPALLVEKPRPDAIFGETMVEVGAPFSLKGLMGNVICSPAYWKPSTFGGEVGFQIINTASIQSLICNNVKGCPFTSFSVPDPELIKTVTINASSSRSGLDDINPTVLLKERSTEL

[4] = Drug uptake in Candida albicans ATCC SC5314 assessed as increase in red and green fluorescence intensity measured after 10 hrs by PI/Hoechst […] staining based fluorescence microscopy; format: ADME
[5] = test system: Candida albicans; assay: Antifungal activity against Candida albicans assessed as inhibition of fungal cell proliferation by measuring decrease in fungal cell density measured after 24 hrs; format: functional, organism-based
[6] = Increase in intracellular ROS level in Candida albicans assessed as fold increase in fluorescence intensity measured after 12 hrs by fluorescence microscopic analysis relative to control; format: functional
[7] = Increase in intracellular ROS level in Cryptococcus neoformans assessed as fold increase in fluorescence intensity measured after 12 hrs by fluorescence microscopic analysis relative to control; format: functional
[8] = test system: Candida albicans; assay: Induction of apoptosis in Candida albicans assessed as late apoptotic cells measured after 24 hrs by Annexin V-FITC/PI staining based flow cytometry (reference value: 0.44%); format: functional
[9] = target: Lanosterol 14-alpha demethylase (Candida albicans (strain SC5314 / ATCC MYA-2876) (Yeast), UniProt P10613); assay: Inhibition of CYP51 in Candida albicans ATCC SC5314 assessed as lanosterol content at 4 ug/ml measured after 48 hrs by GC-MS analysis; design: scale not given: the % may be the effect or the level left; settings: at 4 µg/mL
Sequence of Lanosterol 14-alpha demethylase (P10613 whole entry): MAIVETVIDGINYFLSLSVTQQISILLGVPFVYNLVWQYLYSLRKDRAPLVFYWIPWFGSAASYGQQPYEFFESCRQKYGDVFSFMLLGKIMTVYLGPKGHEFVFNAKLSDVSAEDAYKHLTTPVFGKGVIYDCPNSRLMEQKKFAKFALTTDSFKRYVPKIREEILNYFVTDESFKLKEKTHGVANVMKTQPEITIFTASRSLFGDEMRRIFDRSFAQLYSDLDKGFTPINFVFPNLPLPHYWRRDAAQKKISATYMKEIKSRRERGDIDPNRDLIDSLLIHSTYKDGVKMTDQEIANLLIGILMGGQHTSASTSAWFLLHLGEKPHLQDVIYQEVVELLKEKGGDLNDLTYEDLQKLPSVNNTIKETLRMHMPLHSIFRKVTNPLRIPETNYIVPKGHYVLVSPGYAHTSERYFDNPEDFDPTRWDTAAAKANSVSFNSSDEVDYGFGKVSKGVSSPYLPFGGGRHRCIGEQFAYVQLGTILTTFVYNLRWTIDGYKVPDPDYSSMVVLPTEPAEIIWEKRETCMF

[10] = test system: Candida albicans; assay: Antifungal activity against Candida albicans infected in mouse assessed as increase in animal's body weight at 20 mg/kg, ip administered on days 2,4,6,8,10,12 and measured on day 14; format: functional, organism-based; settings: time 13.0 day
[11] = test system: Candida albicans; assay: Antifungal activity against Candida albicans infected in mouse assessed as shrinkage of fungal infection region at 20 mg/kg, ip administered on days 2,4,6,8,10,12 and measured on day 14; format: functional, organism-based; settings: time 13.0 day
[12] = test system: Candida albicans; assay: Antifungal activity against Candida albicans infected in mouse assessed as reduction in fungal endogenous infection symptoms at 20 mg/kg, ip administered on days 2,4,6,8,10,12 and measured on day 14 by GMS staining based analysis; format: functional, organism-based; settings: time 13.0 day
[13] = test system: Candida albicans; assay: Antifungal activity against Candida albicans infected in mouse assessed as disappearance of nuclear aggregation in the infection region at 20 mg/kg, ip administered on days 2,4,6,8,10,12 and measured on day 14 by GMS staining based analysis; format: functional, organism-based; settings: time 13.0 day
[14] = test system: Candida albicans; assay: Antifungal activity against Candida albicans infected in mouse assessed as reduction in fungal endogenous infection symptoms at 20 mg/kg, ip administered on days 2,4,6,8,10,12 and measured on day 14 by hematoxylin-eosin staining based analysis; format: functional, organism-based; settings: time 13.0 day
[15] = test system: Candida albicans; assay: Antifungal activity against Candida albicans infected in mouse assessed as reduction in necrotic cell fragments in intercellular spaces of the infection region at 20 mg/kg, ip administered on days 2,4,6,8,10,12 and measured on day 14 by hematoxyin-eosin staining based analysis; format: functional, organism-based; settings: time 13.0 day
[16] = Toxicity in mouse infected with Candida albicans assessed as morphological changes in liver at 20 mg/kg, ip administered on days 2,4,6,8,10,12 and measured on day 14 by hematoxyin-eosin staining based analysis; format: organism-based; settings: in vivo, 312 h, time 13 day
[17] = Toxicity in mouse infected with Candida albicans assessed as morphological changes in lungs at 20 mg/kg, ip administered on days 2,4,6,8,10,12 and measured on day 14 by hematoxyin-eosin staining based analysis; format: organism-based; settings: in vivo, 312 h, time 13 day
[18] = Toxicity in mouse infected with Candida albicans assessed as morphological changes in spleen at 20 mg/kg, ip administered on days 2,4,6,8,10,12 and measured on day 14 by hematoxyin-eosin staining based analysis; format: organism-based; settings: in vivo, 312 h, time 13 day
[19] = Toxicity in mouse infected with Candida albicans assessed as morphological changes in heart at 20 mg/kg, ip administered on days 2,4,6,8,10,12 and measured on day 14 by hematoxyin-eosin staining based analysis; format: organism-based; settings: in vivo, 312 h, time 13 day
[20] = Toxicity in mouse infected with Candida albicans assessed as morphological changes in kidney at 20 mg/kg, ip administered on days 2,4,6,8,10,12 and measured on day 14 by hematoxyin-eosin staining based analysis; format: organism-based; settings: in vivo, 312 h, time 13 day
[21] = Hepatotoxicity in mouse infected with Candida albicans assessed as plasma ALT level at 20 mg/kg, ip administered on days 2,4,6,8,10,12 and measured on day 14 (reference value: 33.5 +/-3.4 IU/L); format: toxicity, organism-based; settings: in vivo, 312 h, time 13 day
[22] = test system: Mus musculus; assay: Anti-inflammatory activity in mouse infected with Candida albicans assessed as reduction in NLRP3 expression in infection tissues at 20 mg/kg, ip administered on days 2,4,6,8,10,12 and measured on day 14 by western blot analysis; format: functional, organism-based; settings: time 13.0 day
[23] = test system: Mus musculus; assay: Anti-inflammatory activity in mouse infected with Candida albicans assessed as reduction in IL-6R expression in spleen at 20 mg/kg, ip administered on days 2,4,6,8,10,12 and measured on day 14 by immunohistochemical analysis; format: functional, organism-based; settings: time 13.0 day
[24] = test system: Mus musculus; assay: Anti-inflammatory activity in mouse infected with Candida albicans assessed as reduction in PD-L1 expression in spleen at 20 mg/kg, ip administered on days 2,4,6,8,10,12 and measured on day 14 by immunohistochemical analysis; format: functional, organism-based; settings: time 13.0 day
[25] = test system: Mus musculus; assay: Immunomodulatory activity in mouse infected with Candida albicans assessed as increase in expression intensity of CD8+ T cells in spleen at 20 mg/kg, ip administered on days 2,4,6,8,10,12 and measured on day 14 by immunohistochemical staining analysis relative to fluconazole; format: functional, T-cell; settings: time 13 day

Structure (SMILES) | MIC50 [1] [µg/mL] | MIC50 [2] [µg/mL] | IC50 [3] [nM] | Drug uptake [4] | Activity [5] | fold change (FC) [6] | fold change (FC) [7] | Activity [8] [%] | Activity [9] [%] | Activity [10] | Activity [11] | Activity [12] | Activity [13] | Activity [14] | Activity [15] | Activity [16] | Activity [21] [IU/L] | Activity [22] | Activity [23] | Activity [24] | also measured
C[C@H](C(=O)N(C)CC(O)(Cn1ccnc1)c1ccc(Cl)cc1)c1ccc(-c2ccccc2)c(F)c1 (some centres undefined) | 0.5 (≈ 1.02 µM) | 1 (≈ 2.03 µM) | 2290 | Active | Active | 4 | 4 | 19.4 | 39.74 | Active | Active | Active | Active | Active | Active | Non-Toxic | 42.4 | Active | Active | Active | Activity [17]: Non-Toxic; Activity [18]: Non-Toxic; Activity [19]: Non-Toxic; Activity [20]: Non-Toxic; fold change (FC) [25]: 2.12
C[C@H](C(=O)N(C)CC(O)(Cn1ccnc1)c1ccc(Cl)cc1Cl)c1cccc(C(=O)c2ccccc2)c1 (some centres undefined) | 0.25 (≈ 0.466 µM) | 1 (≈ 1.86 µM) | 1930 | Active | Active | 4 | 4 | 28.1 | 38.57 | Active | Active | Active | Active | Active | Active | Non-Toxic | 43.2 | Active | Active | Active | Activity [17]: Non-Toxic; Activity [18]: Non-Toxic; Activity [19]: Non-Toxic; Activity [20]: Non-Toxic; fold change (FC) [25]: 2.12
OC(Cn1cncn1)(Cn1cncn1)c1ccc(F)cc1F [FLUCONAZOLE] | 0.5 (≈ 1.63 µM) | > 8 |  |  | Active |  |  | 5.96 | 35.17 | Active |  | Active | Active | Active | Active |  | 46.1 | Active | Active | Active | 
